This note sets out measurements from patent publication US20070004735A1, “Method for inhibiting the replication of herpes viruses” (priority 2003, published 2007).

The test system of one assay is wild-type HCMV AD169. Briefly: Susceptibility (IC50) of HCMV AD169 wild-type. It is filed as cell-based, Human cytomegalovirus. To be noted: Human betaherpesvirus 5, NHDF cells, read-out: IC 50, Wild-type. As for the experimental part:
(§1) The test compounds are employed as 50 millimolar (mM) solutions in dimethyl sulfoxide (DMSO). Ganciclovir®, Foscarnet® and Cidofovir® are used as reference compounds. After addition of in each case 2 μl of the 50, 5, 0.5 and 0.05 mM DMSO stock solutions to 98 μl portions of cell culture medium in row 2 A-H for duplicate determinations, 1:2 dilutions are carried out with 50 μl portions of medium up to row 11 of the 96-well plate. The wells in rows 1 and 12 each contain 50 μl of medium. 150 μl of a suspension of 1×10^4 cells (human prepuce fibroblasts [NHDF]) are then pipetted into each of the wells (row 1=cell control) and, in rows 2-12, a mixture of HCMV-infected and uninfected NHDF cells (M.O.I.=0.001-0.002), i.e. 1-2 infected cells per 1000 uninfected cells. Row 12 (without substance) serves as virus control. The final test concentrations are 250-0.0005 μM. The plates are incubated at 37° C./5% CO2 for 6 days, i.e. until all the cells are infected in the virus controls (100% cytopathogenic effect [CPE]). The wells are then fixed and stained by adding a mixture of formalin and Giemsa's dye (30 minutes), washed with double-distilled water and dried in a drying oven at 50° C. The plates are then assessed visually using an overhead microscope (plaque multiplier from Technomara).
(§2) For this purpose, NHDF cells are seeded in tissue culture vessels. 5×10^3 cells per well are seeded in 96-well plates and infected with cell-free HCMV AD169 with an moi of 0.03. The infections are cultivated under substance pressure which corresponds to 10 times the IC50 of the substance. Preferably, 30-100 96-well plates inoculated as described are made up. […] Finally, viral stocks are produced as described above and frozen. Serial ten-fold dilution of the virus-infected cells or of the cell culture supernatant of the virus-infected cells is followed by determination of the titer on 24-well plates of confluent NHDF cells after vital staining with neutral red. Finally, the susceptibility to various substances (IC50 determination) is determined as described above.
(§3) The HCMVAD169 mutants selected as described above are grown in vitro on human embryonic prepuce fibroblasts (NHDF cells) under substance pressure (10×IC50 HCMVAD169). After infection of the NHDF cells with a multiplicity of infection (M.O.I) of 0.01, the virus-infected cells are harvested 5-10 days later, and the total DNA is isolated from these cells with the aid of established standard methods (e.g. phenol extraction and ethanol precipitation). Qiagen Sequencing Services (Qiagen, Hilden) determined, after amplification of the viral UL86 gene by PCR, the DNA sequence, which was then transcribed into protein sequence. Compared with the initial strain HCMV AD169, the differences shown in table 2 were detectable in the protein sequence of the major capsid protein (UL86) in the resistant viruses. The IC50 values [μM] of various substances on these mutants compared with the initial strain are likewise indicated. (n.d.=not measured). […] Depending on the nature of the substance, certain mutations lead to various extents of resistance.

The test system of assay [1] is HCMV AD169 clone with mutation in UL86 P586T. Briefly: Susceptibility (IC50) of resistant HCMV AD169 clone P586T. It is filed as cell-based, Human cytomegalovirus. The following applies: Human betaherpesvirus 5, read-out: IC 50, P586T. As for the experimental part:
as §1, §2, §3

Assay [2] has as its system HCMV AD169 clone with mutation in UL86 P1189T. Briefly: Susceptibility (IC50) of resistant HCMV AD169 clone P1189T. It is filed as cell-based, Human cytomegalovirus. To be noted: Human betaherpesvirus 5, read-out: IC 50, P1189T. How it is done:
as §1, §2, §3

Assay [3] relates to HCMV AD169 clone with mutation in UL86 Q1223R. Briefly: Susceptibility (IC50) of resistant HCMV AD169 clone Q1223R. It counts as cell-based, Human cytomegalovirus. To be noted: Human betaherpesvirus 5, read-out: IC 50, Q1223R. How it is done:
as §1, §2, §3

In assay [4] the test system is HCMV AD169 clone with mutation in UL86 A1226T. Briefly: Susceptibility (IC50) of resistant HCMV AD169 clone A1226T. It counts as cell-based, Human cytomegalovirus. The following applies: Human betaherpesvirus 5, read-out: IC 50, A1226T. As for the experimental part:
as §1, §2, §3

In assay [5] the test system is HCMV AD169 clone with mutation in UL86 K1338N. Briefly: Susceptibility (IC50) of resistant HCMV AD169 clone K1338N. To be noted: Human betaherpesvirus 5, read-out: IC 50, K1338N. It counts as cell-based, Human cytomegalovirus. How it is done: as §1, §2, §3
A further assay relates to HCMV Davis or HCMV AD169. Briefly: HCMV Xenograft Gelfoam model. It counts as in vivo, immunodeficient mice. The following applies: oral treatment over 8 days, infectious virus particles vs placebo-treated control; approximate results. An excerpt: 3-4-week old female immunodeficient mice (16-18 g), Fox Chase SCID or Fox Chase SCID-NOD or SCID beige, are purchased from commercial breeders (Bomholtgaard, Jackson, USA). The animals are housed under sterile conditions (including bedding and feed) in isolators.
Collagen sponges 1×1×1 cm in size (Gelfoam®; from Peasel & Lorey, order No. 407534; K. T. Chong et al., Abstracts of 39th Interscience Conference on Antimicrobial Agents and Chemotherapy, 1999, p. 439) are initially wetted with phosphate-buffered saline (PBS), the trapped air bubbles are removed by degassing, and then stored in MEM+10% FCS. 1×10^6 virus-infected NHDF cells (infection with HCMV Davis or HCMV AD169 M.O.I.=0.03) are detached 3 hours after infection and added in a drop of 20 μl of MEM, 10% FCS, to a moist sponge. 12-13 hours later, the infected sponges are incubated with 25 μl of PBS/0.1% BSA/1 mM DTT with 5 ng/μl basic fibroblast growth factor (bFGF). For the transplantation, the immunodeficient mice are anesthetized with Avertin or a ketamine/xylazine/azepromazine mixture, the fur on the back is removed using a shaver, the epidermis is opened 1-2 cm, unstressed and the moist sponges are transplanted under the dorsal skin. The surgical wound is closed with tissue glue. 6 hours after the transplantation, the mice are treated for the first time (one treatment is given on the day of the operation). On subsequent days, oral treatment with the substance is carried out three times a day (7.00 h and 14.00 h and 19.00 h), twice a day (8 h and 18 h) or once a day (14 h) over a period of 8 days. The daily dose is for example 3 or 10 or 30 or 60 or 100 mg/kg of body weight, the volume administered is 10 ml/kg of body weight. The substances are formulated in the form of a 0.5% strength Tylose suspension with 2% DMSO or a 0.5% strength Tylose suspension. […] The number of infectious virus particles after the substance treatment compared with the placebo-treated control group is determined.

Some results are limits rather than exact numbers.

As for `CCCCC(=O)Nc1ccc(NC(=O)Nc2ccc(F)c(Cl)c2)cc1` [Example 4, N-[4-({[(3-Chloro-4-fluorophenyl)amino]carbonyl}amino)phenyl]pentanamide], the IC50 with wild-type HCMV AD169 is 80 nM; in assay [1] it was 500 nM; in assay [2], 2000 nM; in assay [3], 1000 nM; in assay [4], 800 nM; in assay [5], more than 60000 nM. In addition, in the assay on HCMV Davis or HCMV AD169, the “ED50, antiviral activity in vivo” value is reported as 70 mg/kg/day.
In the case of `CC1(C)CC(=O)NN=C1c1cccc(NC(=O)Nc2ccc(F)cc2F)c1` [Example 1, N-(2,4-Difluorophenyl)-N′-[3-(4,4-dimethyl-6-oxo-1,4,5,6-tetrahydro-3-pyridazinyl)phenyl]urea], the IC50 in the assay on wild-type HCMV AD169 was 1000 nM; in assay [1], 4000 nM; in assay [2] it was more than 125000 nM; in assay [3], 20000 nM; in assay [4] it was more than 125000 nM; in assay [5], more than 125000 nM. Also, the “ED50, antiviral activity in vivo” value in the assay with HCMV Davis or HCMV AD169 worked out at 50 mg/kg/day.
As to `CC1(C)CC(=O)NN=C1c1cc(NC(=O)Nc2cc(F)ccc2F)ccc1O` [Example 2, N-(2,5-Difluorophenyl)-N′-[3-(4,4-dimethyl-6-oxo-1,4,5,6-tetrahydro-3-pyridazinyl)-4-hydroxyphenyl]urea], the IC50 in the assay with wild-type HCMV AD169 was 400 nM; in assay [1], 2000 nM; in assay [2] it was more than 125000 nM; in assay [3], 6000 nM; in assay [4], more than 125000 nM; in assay [5], more than 125000 nM. Besides, in the assay with HCMV Davis or HCMV AD169, the “ED50, antiviral activity in vivo” value was 45 mg/kg/day.
